Data on eight compounds can be found in ChEMBL document CHEMBL1149281, “Structure-activity relationship of 6-methylidene penems bearing tricyclic heterocycles as broad-spectrum beta-lactamase inhibitors: crystallographic structures show unexpected binding of 1,4-thiazepine intermediates” (J Med Chem, 2004).

For orientation: MIC means the least concentration at which growth counts as inhibited. Usually IC50 stands for the concentration that gives 50% inhibition. A higher IC50 goes with weaker potency in that assay.

Some results are limits rather than exact numbers.

For experiment [1], the system named is Serratia marcescens. Briefly: Antimicrobial activity against Serratia marcescens GC 4142 expressing AmpC in presence of 4 ug/mL piperacillin. The experiment is classed as functional.
In experiment [2] the test system is Enterobacter cloacae. Briefly: Antimicrobial activity against Enterobacter cloacae GC 1475 expressing P99 in presence of 4 ug/mL piperacillin. The experiment is classed as functional.
For experiment [3], the target named is Beta-lactamase (Enterobacter cloacae, UniProt P05364).
Description: Inhibition of Enterobacter cloacae AmpC
Experiment [4] concerns Escherichia coli. Briefly: Antimicrobial activity against Escherichia coli GC 2805 expressing CcrA in presence of 4 ug/mL piperacillin. Format: functional.
Experiment [5] has as its system Enterobacter cloacae. Briefly: Antimicrobial activity against Enterobacter cloacae GC 1477 expressing AmpC in presence of 4 ug/mL piperacillin. Format: functional.
Experiment [6] concerns Escherichia coli. Briefly: Antimicrobial activity against Escherichia coli GC 2844 in presence of 4 ug/mL piperacillin. Format: functional.
The subject of experiment [7] is Enterobacter cloacae. Briefly: Antimicrobial activity against Enterobacter cloacae GC 2071 expressing Imi1 and AmpC in presence of 4 ug/mL piperacillin. The experiment is classed as functional.
In experiment [8] the test system is Escherichia coli. Briefly: Antimicrobial activity against Escherichia coli GC 2804 expressing Imp in presence of 4 ug/mL piperacillin. The experiment is classed as functional.
In experiment [9] the test system is Serratia marcescens. Briefly: Antimicrobial activity against Serratia marcescens GC 1781 expressing Sme1 and AmpC in presence of 4 ug/mL piperacillin. The experiment is classed as functional.
Experiment [10] has as its system Escherichia coli. Briefly: Antimicrobial activity against Escherichia coli GC 2203 in presence of 4 ug/mL piperacillin. Format: functional.
Experiment [11] concerns Pseudomonas aeruginosa. Briefly: Antimicrobial activity against Pseudomonas aeruginosa GC 1764 expressing AmpC in presence of 4 ug/mL piperacillin. Format: functional.
Experiment [12] concerns the target Beta-lactamase TEM (Escherichia coli, UniProt P62593). Briefly: Inhibition of Escherichia coli TEM1.
Experiment [13] has as its system Escherichia coli. Briefly: Antimicrobial activity against Escherichia coli GC 2252 expressing IRT2 in presence of 4 ug/mL piperacillin. The experiment is classed as functional.
Experiment [14] deals with Metallo-beta-lactamase type 2 (Bacteroides fragilis, UniProt P25910). Briefly: Inhibition of Bacteroides fragilis CcrA.
The test system of experiment [15] is Klebsiella pneumoniae. Briefly: Antimicrobial activity against Klebsiella pneumoniae GC 2825 in presence of 4 ug/mL piperacillin. The experiment is classed as functional.
Experiment [16] deals with Staphylococcus aureus. Briefly: Antimicrobial activity against Staphylococcus aureus GC 2216 in presence of 4 ug/mL piperacillin. The experiment is classed as functional.
Experiment [17] deals with Escherichia coli. Briefly: Antimicrobial activity against Escherichia coli GC 2847 expressing TEM1 in presence of 4 ug/mL piperacillin. Format: functional.
Experiment [18] relates to Escherichia coli. Briefly: Antimicrobial activity against Escherichia coli GC 2920 expressing IRT2 in presence of 4 ug/mL piperacillin. Format: functional.
A short description of experiment [19]: Inhibition of Enterobacter cloacae class C beta lactamase GC1.
In experiment [20] the target is T1, Beta-lactamase SHV-1 (Escherichia coli, UniProt P0AD63).
T1 sequence (P0AD63 whole entry): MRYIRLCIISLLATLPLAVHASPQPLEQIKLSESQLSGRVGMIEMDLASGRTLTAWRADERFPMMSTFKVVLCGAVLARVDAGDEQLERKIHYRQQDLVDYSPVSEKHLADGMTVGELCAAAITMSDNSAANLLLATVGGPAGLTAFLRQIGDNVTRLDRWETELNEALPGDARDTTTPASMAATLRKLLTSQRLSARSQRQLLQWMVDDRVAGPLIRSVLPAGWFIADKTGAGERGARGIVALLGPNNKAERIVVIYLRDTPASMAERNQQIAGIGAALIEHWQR
Briefly: Inhibition of Escherichia coli SHV1.

Sequence of Metallo-beta-lactamase type 2 (P25910 whole entry): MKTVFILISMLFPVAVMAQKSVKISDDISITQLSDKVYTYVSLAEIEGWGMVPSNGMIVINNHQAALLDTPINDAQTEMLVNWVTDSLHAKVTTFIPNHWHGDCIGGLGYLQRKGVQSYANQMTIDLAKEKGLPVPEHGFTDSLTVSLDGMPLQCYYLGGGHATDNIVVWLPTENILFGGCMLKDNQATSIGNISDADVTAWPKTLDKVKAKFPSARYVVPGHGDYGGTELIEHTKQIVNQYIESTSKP
Sequence of Beta-lactamase (P05364 whole entry): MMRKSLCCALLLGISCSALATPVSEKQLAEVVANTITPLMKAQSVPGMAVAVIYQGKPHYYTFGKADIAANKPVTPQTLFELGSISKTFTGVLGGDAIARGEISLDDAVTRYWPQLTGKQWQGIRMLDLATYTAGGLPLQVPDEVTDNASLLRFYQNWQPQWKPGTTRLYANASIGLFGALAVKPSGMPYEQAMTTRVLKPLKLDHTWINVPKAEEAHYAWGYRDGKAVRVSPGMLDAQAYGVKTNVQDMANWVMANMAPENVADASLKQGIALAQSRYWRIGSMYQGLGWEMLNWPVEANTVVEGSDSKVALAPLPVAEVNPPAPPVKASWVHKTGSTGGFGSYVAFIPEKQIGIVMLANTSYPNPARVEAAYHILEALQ
Sequence of Beta-lactamase TEM (P62593 whole entry): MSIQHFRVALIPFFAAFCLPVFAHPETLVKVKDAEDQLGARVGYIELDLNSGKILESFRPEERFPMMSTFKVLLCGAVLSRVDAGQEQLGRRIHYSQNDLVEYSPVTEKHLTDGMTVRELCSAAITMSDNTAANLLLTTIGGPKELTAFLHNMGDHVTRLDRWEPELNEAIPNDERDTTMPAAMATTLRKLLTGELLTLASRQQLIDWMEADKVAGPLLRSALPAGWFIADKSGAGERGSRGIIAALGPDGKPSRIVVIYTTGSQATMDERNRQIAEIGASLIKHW

For the compound `Cc1cccc2sc3nc(/C=C4/C(=O)N5C(C(=O)[O-])=CS[C@H]45)cn3c12.[Na+]`, the MIC in experiment [1] was 4 µg/mL; in experiment [2] it was 16 µg/mL; in [4], greater than 64 µg/mL; in [5] it was 32 µg/mL; in experiment [6], 2 µg/mL; in experiment [7], 16 µg/mL. Moreover, the MIC in experiment [8] was less than 0.06 µg/mL; in [9], 4 µg/mL; in [10] it was 2 µg/mL; in experiment [11], 2 µg/mL; in experiment [13], 16 µg/mL; in experiment [15] it was 16 µg/mL. For the same compound, the MIC was less than 0.06 µg/mL in experiment [16], 8 µg/mL in experiment [17] and 2 µg/mL in experiment [18]. In addition, the IC50 in [3] was found to be 2 nM; in [12], 9 nM; in experiment [14], 370 nM.

With `O=C([O-])C1=CS[C@@H]2/C(=C\c3cn4c(n3)sc3cc(Cl)ccc34)C(=O)N12.[Na+]`, the MIC is 2 µg/mL in experiment [1]; 8 µg/mL in [2]; greater than 64 µg/mL in experiment [4]; 16 µg/mL in experiment [5]; 2 µg/mL in [6]; 8 µg/mL in [7]. Further, the MIC was less than 0.06 µg/mL in experiment [8]; 1 µg/mL in experiment [9]; 1 µg/mL in experiment [10]; 16 µg/mL in [11]; 16 µg/mL in [13]; 32 µg/mL in [15]. For the same compound, the MIC in experiment [16] is less than 0.06 µg/mL; in experiment [17], 4 µg/mL; in experiment [18] it was 1 µg/mL. Also, the IC50 in experiment [3] was 3 nM; in [12] it was 6 nM; in experiment [14] it was 74 nM.

As to `C[C@]1(Cn2ccnn2)[C@H](C(=O)[O-])N2C(=O)C[C@H]2S1(=O)=O.[Na+]` [TAZOBACTAM SODIUM], the MIC in experiment [1] was greater than 64 µg/mL; in experiment [2], greater than 64 µg/mL; in [4], greater than 64 µg/mL; in [5] it was greater than 64 µg/mL; in [6], 2 µg/mL; in experiment [7], greater than 64 µg/mL. Moreover, the minimum inhibitory concentration (MIC) is 0.12 µg/mL in experiment [8]; 1 µg/mL in [9]; greater than 64 µg/mL in experiment [10]; greater than 64 µg/mL in [11]; 2 µg/mL in experiment [13]; greater than 64 µg/mL in experiment [15]. Further, the MIC turned out to be 64 µg/mL in experiment [16], 2 µg/mL in experiment [17] and 4 µg/mL in experiment [18].

In the case of `O=C([O-])C1=CS[C@@H]2/C(=C\c3cn4c(n3)sc3ccccc34)C(=O)N12.[Na+]`, the MIC is 1 µg/mL in [1]; 8 µg/mL in experiment [2]; greater than 64 µg/mL in [4]; 16 µg/mL in experiment [5]; 2 µg/mL in experiment [6]; 2 µg/mL in experiment [7]. For the same compound, the MIC in [8] is less than 0.06 µg/mL; in experiment [9], 0.5 µg/mL; in experiment [10] it was 2 µg/mL; in experiment [11] it was 4 µg/mL; in experiment [13], 8 µg/mL; in experiment [15], 16 µg/mL. Besides, the results for the MIC in experiment [16], in experiment [17] and in experiment [18] were less than 0.06 µg/mL, 2 µg/mL and 2 µg/mL, respectively. In experiment [3], this compound had an IC50 of 1 nM.

For `O=C([O-])C1=CS[C@@H]2/C(=C\c3cn4c5c(sc4n3)CCC5)C(=O)N12.[Na+]`, the MIC in experiment [1] was 2 µg/mL; in [2], 16 µg/mL; in [4], greater than 64 µg/mL; in [5], 16 µg/mL; in experiment [6], 2 µg/mL; in experiment [7], 4 µg/mL. The MIC in experiment [8] is less than 0.06 µg/mL; in experiment [9], 1 µg/mL; in experiment [10], 2 µg/mL; in experiment [11] it was 2 µg/mL; in experiment [13], 8 µg/mL; in [15], 4 µg/mL. Further, the MIC in experiment [16] was 2 µg/mL; in experiment [17], 4 µg/mL; in experiment [18], 2 µg/mL. Moreover, the results for the IC50 in experiment [3], in [19] and in experiment [20] were 2 nM, 3.8 nM and 12 nM, respectively.

Turning to `O=C([O-])C1=CS[C@@H]2/C(=C\c3cn4c(n3)sc3cc(F)ccc34)C(=O)N12.[Na+]`, the MIC was 2 µg/mL in experiment [1]; 16 µg/mL in experiment [2]; greater than 64 µg/mL in experiment [4]; 32 µg/mL in [5]; 2 µg/mL in experiment [6]; 8 µg/mL in experiment [7]. For the same compound, the minimal inhibitory concentration (MIC) in experiment [8] was less than 0.06 µg/mL; in [9], 2 µg/mL; in [10], 2 µg/mL; in experiment [11] it was 4 µg/mL; in experiment [13], 16 µg/mL; in experiment [15], 16 µg/mL. In addition, the MIC in experiment [16] is less than 0.06 µg/mL; in experiment [17], 8 µg/mL; in [18] it was 2 µg/mL. Moreover, the IC50 is 2 nM in experiment [3] and 8 nM in experiment [12].

Regarding `Cc1ccc2c(c1)sc1nc(/C=C3/C(=O)N4C(C(=O)[O-])=CS[C@H]34)cn12.[Na+]`, the MIC in [1] is 1 µg/mL; in experiment [2], 8 µg/mL; in [4], greater than 64 µg/mL; in experiment [5], 32 µg/mL; in experiment [6], 2 µg/mL; in [7], 8 µg/mL. In addition, the MIC was less than 0.06 µg/mL in experiment [8]; 0.5 µg/mL in [9]; 1 µg/mL in experiment [10]; 16 µg/mL in [11]; 16 µg/mL in [13]; 8 µg/mL in experiment [15]. Also, the values for the MIC in experiment [16], in [17] and in experiment [18] were less than 0.06 µg/mL, 4 µg/mL and 2 µg/mL, respectively. The IC50 was found to be 1 nM in experiment [3], 3 nM in experiment [12] and 103 nM in [14].

On to `COc1ccc2c(c1)sc1nc(/C=C3/C(=O)N4C(C(=O)[O-])=CS[C@H]34)cn12.[Na+]`, for which the MIC in experiment [1] was 2 µg/mL; in experiment [2], 16 µg/mL; in [4], greater than 64 µg/mL; in experiment [5], 64 µg/mL; in experiment [6], 2 µg/mL; in [7] it was 16 µg/mL. In addition, the MIC in [8] was less than 0.06 µg/mL; in experiment [9] it was 2 µg/mL; in [10] it was 1 µg/mL; in experiment [11], 32 µg/mL; in experiment [13], 8 µg/mL; in experiment [15], 64 µg/mL. Also, the MIC in [16] is less than 0.06 µg/mL; in experiment [17], 16 µg/mL; in experiment [18], 2 µg/mL. This compound also showed a half-inhibitory concentration (IC50) in experiment [3] of 2 nM.
